Measurements: PubChem BioAssay (NCI)
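Exposure lasted 48 hours, with cells grown in 96-well plates and compounds tested at five concentrations. Here, GI50 denotes the concentration required for 50% inhibition of growth. TGI is the concentration that stops growth completely.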

Legend:
Assay in all cases: NCI-60 cell line screen, 48 h
[1] = system: NCI-H23 lung
[2] = system: IGROV1 ovarian
[3] = system: MDA-MB-231 breast
[4] = system: HT29 colon
[5] = system: SF-295 CNS
[6] = system: UACC-62 melanoma
[7] = system: SF-539 CNS
[8] = system: SW-620 colon
[9] = system: A549 NSCLC
[10] = system: CAKI-1 renal
[11] = system: CCRF-CEM leukemia
[12] = system: UO-31 renal
[13] = system: HS 578T breast
[14] = system: HOP-92 NSCLC
[15] = system: M14 melanoma
[16] = system: RXF 393 renal
[17] = system: HCT-15 colon
[18] = system: HCT-116 colon
[19] = system: SNB-19 CNS
[20] = system: NCI-H226 lung
[21] = system: MCF7 breast
[22] = system: SF-268 CNS
[23] = system: SNB-75 CNS
[24] = system: MDA-MB-435
[25] = system: COLO 205 colon
[26] = system: MOLT-4 leukemia
[27] = system: SN12C renal
[28] = system: BT-549 breast
[29] = system: 786-0 renal
[30] = system: T-47D breast
[31] = system: TK-10 renal
[32] = system: SK-MEL-28 melanoma
[33] = system: OVCAR-4 ovarian
[34] = system: NCI-H522 lung
[35] = system: PC-3 prostate
[36] = system: SK-MEL-5 melanoma
[37] = system: EKVX NSCLC
[38] = system: HL-60(TB) leukemia
[39] = system: LOX IMVI melanoma
[40] = system: KM12 colon
[41] = system: NCI-H460 lung
[42] = system: UACC-257 melanoma
[43] = system: HCC-2998 colon
[44] = system: K-562 leukemia
[45] = system: OVCAR-5 ovarian
[46] = system: A498 renal
[47] = system: U251 CNS
[48] = system: MALME-3M melanoma
[49] = system: OVCAR-3 ovarian
[50] = system: RPMI-8226 leukemia
[51] = system: SK-OV-3 ovarian
[52] = system: DU-145 prostate
[53] = system: ACHN renal
[54] = system: OVCAR-8 ovarian
[55] = system: MDA-MB-468 breast
[56] = system: HOP-62 NSCLC
[57] = system: SR leukemia

CCC(C)(C)c1ccc(OCCCCCCN2CCN(c3ccncc3)CC2)cc1
GI50 [1]: 3.65 µM
TGI [1]: 14 µM
GI50 [2]: 10.8 µM
TGI [2]: 24.4 µM
GI50 [3]: 3.16 µM
TGI [3]: 12.2 µM
GI50 [4]: 2.49 µM
TGI [4]: 8.86 µM
GI50 [5]: 1.9 µM
TGI [5]: 3.74 µM
GI50 [6]: 11.8 µM
TGI [6]: 24.9 µM
GI50 [7]: 1.84 µM
TGI [7]: 3.91 µM
GI50 [8]: 1.66 µM
TGI [8]: 3.69 µM
GI50 [9]: 10.6 µM
TGI [9]: 26.6 µM
GI50 [10]: 4.97 µM
TGI [10]: 18.6 µM
GI50 [11]: 2.02 µM
TGI [11]: 10.3 µM
GI50 [12]: 10 µM
TGI [12]: 22.1 µM
GI50 [13]: 7.73 µM
TGI [13]: 26.9 µM
GI50 [14]: 2.17 µM
TGI [14]: 15.4 µM
GI50 [15]: 1.58 µM
TGI [15]: 3.39 µM
GI50 [16]: 1.89 µM
TGI [16]: 8.42 µM
GI50 [17]: 1.75 µM
TGI [17]: 3.88 µM
GI50 [18]: 1.6 µM
TGI [18]: 3.85 µM
GI50 [19]: 8.19 µM
TGI [19]: 22.2 µM
GI50 [20]: 10.6 µM
TGI [20]: 23.7 µM
GI50 [21]: 1.73 µM
TGI [21]: 3.95 µM
GI50 [22]: 11.8 µM
TGI [22]: 27.9 µM
GI50 [23]: 8.03 µM
TGI [23]: 22.4 µM
GI50 [24]: 2.5 µM
TGI [24]: 8.34 µM
GI50 [25]: 1.66 µM
TGI [25]: 3.33 µM
GI50 [26]: 3.14 µM
TGI [26]: 10.1 µM
GI50 [27]: 10.2 µM
TGI [27]: 22.4 µM
GI50 [28]: 3.07 µM
TGI [28]: 12.2 µM
GI50 [29]: 1.67 µM
TGI [29]: 3.15 µM
GI50 [30]: 2.63 µM
TGI [30]: 8.12 µM
GI50 [31]: 14.6 µM
TGI [31]: 28.7 µM
GI50 [32]: 3.71 µM
TGI [32]: 13.3 µM
GI50 [33]: 6.33 µM
TGI [33]: 21 µM
GI50 [34]: 11.8 µM
TGI [34]: 26.5 µM
GI50 [35]: 3.63 µM
TGI [35]: 16.2 µM
GI50 [36]: 1.79 µM
TGI [36]: 3.58 µM
GI50 [37]: 4.14 µM
TGI [37]: 16.5 µM
GI50 [38]: 1.68 µM
TGI [38]: 4.06 µM
GI50 [39]: 1.81 µM
TGI [39]: 3.4 µM
GI50 [40]: 4.17 µM
TGI [40]: 15.9 µM
GI50 [41]: 2.08 µM
TGI [41]: 4.77 µM
GI50 [42]: 10.7 µM
TGI [42]: 23.8 µM
GI50 [43]: 1.87 µM
TGI [43]: 3.5 µM
GI50 [44]: 1.52 µM
TGI [44]: 6.8 µM
GI50 [45]: 13.4 µM
TGI [45]: 26.2 µM
GI50 [46]: 17.9 µM
TGI [46]: 34.6 µM
GI50 [47]: 3.06 µM
TGI [47]: 11.8 µM
GI50 [48]: 5.26 µM
TGI [48]: 17.3 µM
GI50 [49]: 3.86 µM
TGI [49]: 16.2 µM
GI50 [50]: 2.06 µM
TGI [50]: 4.98 µM
GI50 [51]: 14.4 µM
TGI [51]: 29.8 µM
GI50 [52]: 5.27 µM
TGI [52]: 17.6 µM
GI50 [53]: 6.33 µM
TGI [53]: 19.5 µM
GI50 [54]: 10.2 µM
TGI [54]: 30.1 µM
GI50 [55]: 1.76 µM
TGI [55]: 3.65 µM
GI50 [56]: 6.77 µM
TGI [56]: 23.8 µM
GI50 [57]: 2.13 µM
TGI [57]: 9.38 µM
